Laboratory results reported in US7560476B2, “Microbicidal composition” (Rohm and Haas Company, priority 2003, dated 2009).
Read-outs that look alike come from different tables or passages of the source. Values belong to the compound of their own block, whether it stands above or below them.

How the values were obtained:
[1] = system: P. aeruginosa 9027; test: Synergy test, microtiter plate high resolution MIC assay, M9GY medium; assay type: cell-based, Pseudomonas aeruginosa
[2] = system: S. aureus 6538; test: as above; assay type: cell-based, Staphylococcus aureus
Method: (§1) Synergism was determined by an industrially accepted method described by Kull, F. C.; Eisman, P. C.; Sylwestrowicz, H. D. and Mayer, R. L., in Applied Microbiology 9:538-541 (1961), using the ratio determined by the formula: Qa/QA+Qb/QB=Synergy Index (“SI”) wherein: • QA=concentration of compound A (first component) in ppm, acting alone, which produced an end point (MIC of Compound A). • Qa=concentration of compound A in ppm, in the mixture, which produced an end point. • QB=concentration of compound B (second component) in ppm, acting alone, which produced an end point (MIC of Compound B). • Qb=concentration of compound B in ppm, in the mixture, which produced an end point.
(§2) When the sum of Qa/QA and Qb/QB is greater than one, antagonism is indicated. […] The lower the SI, the greater the synergy shown by that particular mixture. The minimum inhibitory concentration (MIC) of a microbicide is the lowest concentration tested under a specific set of conditions that prevents the growth of added microorganisms.
(§3) Synergy tests were conducted using standard microtiter plate assays with media designed for optimal growth of the test microorganism. Minimal salt medium supplemented with 0.2% glucose and 0.1% yeast extract (M9GY medium) was used for testing bacteria; Potato Dextrose Broth (PDB medium) was used for testing yeast and mold. In this method, a wide range of combinations of microbicides was tested by conducting high resolution MIC assays in the presence of various concentrations of MI. High resolution MICs were determined by adding varying amounts of microbicide to one column of a microtitre plate and doing subsequent […] dilutions using an automated liquid handling system to obtain a series of endpoints ranging from 2 ppm to 10,000 ppm active ingredient. The synergy of the combinations of the present invention was determined against two bacteria, Staphylococcus aureus (S. aureus—ATCC #6538) or Pseudomonas aeruginosa (P. aeruginosa—ATCC #15442), a yeast, Candida albicans (C. albicans—ATCC 10231), and a mold, Aspergillus niger (A. niger—ATCC 16404). […]

[3] = system: C. albicans 10231; test: Synergy test, microtiter plate high resolution MIC assay, PDB medium; assay type: cell-based, Candida albicans
Method: as §1, §2, §3

[4] = system: A. niger 16404; test: as above; assay type: cell-based, Aspergillus niger
Method: as §1, §2, §3

[5] = system: microorganisms isolated from contaminated paint; test: Testing of synergistic combinations in paint (repeated inoculation); assay type: cell-based; details: paint pH 8.5-8.8
Method: A paint formulation having a pH of 8.5-8.8 was prepared from an acrylic binder, cellulosic thickener, kaolin, additives for formulation, and water. Fifty grams of the paint samples are inoculated repeatedly with microorganisms isolated from contaminated paint, with rising concentrations of inoculum. This treatment is carried out once a week. Six days after each inoculation, the surviving microorganisms are evaluated in each sample by applying onto nutrient media. These streak-outs are assessed after an incubation time of up to seven days (at 27±2° C. and 85-95% relative atmospheric humidity). An unpreserve sample of the system to be examined is used to check the susceptibility to the growth of microorganisms. Five inoculation cycles are carried out, thus leading to a test duration of six weeks. The rating scale for evaluation microbial growth is as follows: […]

Structure (SMILES): Cn1sccc1=O [MI, 2-methyl-4-isothiazolin-3-one]
- MIC ([1]; Pseudomonas aeruginosa, 9027, 72 h, read-out: QMI (MIC of MI acting alone)): 25 µg/mL
- MIC ([2]; Staphylococcus aureus, 6538, 24 h, read-out: QMI (MIC of MI acting alone)): 60 µg/mL
- MIC ([3]; Candida albicans, 10231, 48 h, read-out: QMI (MIC of MI acting alone)): 175 µg/mL
- MIC ([4]; Aspergillus niger, 16404, 72 h, read-out: QMI (MIC of MI acting alone)): 400 µg/mL
- growth rating >5 inoc. ([5]; 150.0 ppm MI, 0.0 ppm DTBMA (100:0)): 2/1

- MIC ([1]; Pseudomonas aeruginosa, 9027, M9GY, 72 hours, read-out: QDTBMA (MIC of DTBMA acting alone)): 1000 µg/mL
- MIC ([2]; Staphylococcus aureus, 6538, M9GY, 24 hours, read-out: QDTBMA (MIC of DTBMA acting alone)): 40 µg/mL
- MIC ([3]; Candida albicans, 10231, PDB, 48 hours, read-out: QDTBMA (MIC of DTBMA acting alone)): 40 µg/mL
- MIC ([4]; Aspergillus niger, 16404, PDB, 72 hours, read-out: QDTBMA (MIC of DTBMA acting alone)): 1500 µg/mL
Structure (SMILES): CNC(=O)c1ccccc1SSc1ccccc1C(=O)NC [DTBMA, 2,2′-dithiobis(N-methylbenzamide)]
- growth rating >5 inoc. ([5]; 0.0 ppm MI, 152.0 ppm DTBMA (0:100)): 3
- growth rating >5 inoc. ([5]; 0.0 ppm MI, 228.0 ppm DTBMA (0:100)): 3

- MIC ([1]; Pseudomonas aeruginosa, 9027, M9GY, 72 hours, read-out: QMBI (MIC of MBI acting alone)): 200 µg/mL
- MIC ([2]; Staphylococcus aureus, 6538, M9GY, 24 hours, read-out: QMBI (MIC of MBI acting alone)): 8 µg/mL
- MIC ([3]; Candida albicans, 10231, PDB, 48 hours, read-out: QMBI (MIC of MBI acting alone)): 8 µg/mL
- MIC ([4]; Aspergillus niger, 16404, PDB, 72 hours, read-out: QMBI (MIC of MBI acting alone)): 60 µg/mL
Structure (SMILES): Cn1sc2ccccc2c1=O [MBI, 2-methylbenzisothiazolone]
